Test results: ChEMBL document CHEMBL1147776, “1-[4-(1H-Benzoimidazol-2-yl)-phenyl]-3-[4-(1H-benzoimidazol-2-yl)-phenyl]-urea derivatives as small molecule heparanase inhibitors” (Bioorg Med Chem Lett, 2006)

Columns and labels:
Mus musculus = assay: Inhibition of lung metastasis in C57 mice injected with B16-BL6 melanoma cells at 30 mg/kg, ip; format: functional; settings: route intraperitoneal
B16 = assay: Inhibition of proliferation on B16-BL6 melanoma cells at 100 uM; format: functional; settings: Mus musculus
[1] = Plasma concentration in mice after 1 hour of ip administration; format: ADME, organism-based; settings: mouse
[2] = Plasma concentration in mice after 4 hours of ip administration; format: ADME, organism-based; settings: mouse

concentration at 1 h [1]: 31 µM | concentration at 4 h [2]: 23 µM
Structure (SMILES): O=C(Nc1ccc(-c2nc3ccccc3[nH]2)cc1)Nc1ccc(-c2nc3ccccc3[nH]2)cc1
inhibition in vivo at 30 mg/kg (Mus musculus): 50% | inhibition at 100 µM (B16): < 50%
